From patent publication US10526371B2, “Hydrogel-forming peptides” (Universiteit Gent, priority 2015, dated 2020)
Several values for one entry are separate records, joined by “and”; a condition that tells them apart may be missing. Equal entries are not always repeated. Square brackets hold non-standard residues; d marks the D form. Peptide text beside a SMILES is read from it. β3hF = N[C@H](CC(=O)O)Cc1ccccc1

Key:
elastase [1] = assay: Proteolytic stability of hydrogels (elastase solution on top of hydrogel); type: in vitro ADME; conditions: for time at which hydrogel changed into an opaque structure / gel degradation time (hydrogel unstable/fluid-like): elastase 60 μM in 10 mM PBS on top; for gel degradation time (hydrogel unstable/fluid-like): room temperature; for macroscopic aggregation / physical degradation: over 42 days
Method: (B) The proteolytic stability of the hydrogels was analyzed by placing an elastase solution (60 μM in 10 mM PBS) on top of the hydrogel. In all the stability experiments a total volume of 4 mL (gel+PBS solution with and without enzyme) was obtained. The addition of the enzyme solution on top of the hydrogel was set as the starting point of the gel-degradation experiments; B. At specific time-intervals (0 h, 24 h, 2 days, 3 days, 4 days, 5 days, 6 days, 7 days, 2 weeks, 3 weeks, etc.) the liquid portion on top of the hydrogel was removed using a pipette and the hydrogel's volume was estimated using following formula: VTotal−VLiquid portion=VHydrogel (1)
wherein VTotal is the total volume and remains at 4 mL and VLiquid portion is the volume measured of the liquid portion after each sampling interval. At each sampling interval the pH was also measured; C. A picture of the inverted glass tube, only containing the self-sustaining non-fluid-like hydrogel, was taken in order to assess the physical deformation of the hydrogel and volume-loss; D. The PBS, mQ or enzyme solution is gently replaced on top of the hydrogel using a pipette, allowing repetition of steps A-D. Between sampling-intervals the glass tubes were kept undisturbed at room temperature. The gel degradation time was defined as the period required for complete disintegration of the hydrogels into liquid under observation of the naked eye.
(C) In a next step, the stability and degradation profiles of the mixed α/β-hydrogels were investigated using this methodology. During the first hours after addition of the elastase to peptide SEQ ID NO 1 hydrogel, no apparent physical deformation was observed. The collected liquid portion (on top of the hydrogel) measured 3 mL (during the first 10 hours). […] In comparison to the α-peptide 1 hydrogel the degradation time of peptide SEQ ID NO 1 hydrogel was extended from 3.5 days to 5.5 days. However, the physical alteration of this hydrogel into an opaque structure was already observed after one day.

elastase [2] = assay: Enzymatic degradation study of peptides in non-gelating conditions; type: in vitro ADME; conditions: peptide 350 μM, elastase 60 μM, 37° C.
Method: The following biodegradation experiments were performed in order to assess biostability of peptides of the invention toward elastase, a prominent enzyme present in the subcutaneous compartment.
The following buffer was used to assay the proteolytic stability of the peptides towards elastase: 10 mM PBS at pH 7.2. First, a stock solution of elastase (60 μM in 10 mM PBS) was prepared. Peptides SEQ ID NO 1, 2 and 3 and reference α-peptide SEQ ID NO 23 were subjected to the degradation study and prepared as a stock solution of 350 μM in mQ water (with a resistivity of […]). Enzymatic degradation was carried out by incubation of peptide (900 μL, 350 μM) with the enzyme (150 μL, 60 μM) at 37° C. for 7 days. To preclude any pH-dependent effects on the enzyme's activity, the pH value was kept at pH 6.9±0.5 in all degradation experiments.
The enzyme concentration was selected such that the reference α-peptide SEQ ID NO 23 was completely degraded in less than 1 hour. In case of the α-peptide SEQ ID NO 23, aliquots (70 μL) were periodically taken at 0 min, 5 min, 10 min, 15 min, 20 min and 30 min, while for the mixed α/β-peptides aliquots (70 μL) were taken at 0 min, 20 min, 30 min, 1 h, 2 h, 5 h, 1 day, 2 days, 3 days, 4 days, 5 days and 6 days. 5 μL of 25% AcOH in water (v/v) were added and the degradation was monitored by HPLC analysis. After just 30 min of exposure to elastase, the reference α-peptide SEQ ID NO 23 was completely degraded. The enzymatic degradation of mixed α/β-peptides SEQ ID NO 1, SEQ ID NO 2 and SEQ ID NO 3 was remarkably slower and lasted several days. Mixed α/β-peptides SEQ ID NO 1 and SEQ ID NO 2 were completely consumed after 6 days whilst mixed α/β-peptide SEQ ID NO 1, SEQ ID NO 3 was degraded after 3 days.

[3] = Erosion / general stability of hydrogel without enzyme (PBS on top); type: physicochemical
Method: (A). The peptide hydrogel (1 mL) was prepared in a 10 mL glass tube using the appropriate gelation conditions (see peptide self-assembly in example 2). After leaving the hydrogel to rest overnight the degradation evaluation was started. First, general stability (without the incubation of an enzyme) was evaluated for α-peptide SEQ ID NO 23: 3 mL of mQ water was gently placed on top of the hydrogel and erosion experiments were performed by placing 3 mL PBS solution (10 mM) on top of the hydrogel to assess the hydrogels macroscopic decay in time. […] After 24 hours there was a small loss in volume (0.1 mL) of the formed hydrogel and the aggregation remained visible at the hydrogel surface. The PBS fraction was recollected and measured as 3.1 mL, in agreement with the 0.1 mL volume loss of the hydrogel. After 4 days the hydrogel was completely disintegrated into opaque aggregated pieces sticking to the bottom of the glass tube. The collected solution was measured to be 3.8 mL.

[4] = Peptide self-assembly / gelation conditions; type: physicochemical; conditions: TFA salt
Method: Peptide self-assembly was analyzed in i) a PBS solution (10 mM), ii) a PBS/mQ mixture (1:1 v:v, mQ water with a resistivity of […]) or iii) a NaCl aqueous solution (150 mM). The TFA salt of reference peptide SEQ NO. 23 (1 mg) was dissolved in 50 μl mQ water, followed by the addition of 50 μl PBS solution. This mixture was left to rest overnight, resulting in a 1% w/v hydrogel. The TFA salt of mixed α/β-peptides SEQ ID NO 1 and SEQ ID NO 2 (2 mg) was dissolved in mQ (100 μL) and PBS/mQ mixture (100 μL), respectively. […] The TFA salt of mixed α/β-peptide SEQ ID NO 3 (3 mg) was dissolved in PBS (100 μL) to probe gelation. All self-assembled gels were analyzed by circular dichroism (CD) and Fourier transform infrared (FT-IR) spectroscopy, as well as cryogenic transmission electron microscopy (Cryo-TEM).
(SEQ ID NO:22 (=10-mer)), 100 μl mQ water was added to 2 mg of TFA-salt of pure peptide, then vortexed and sonicated. As a result, a transparent self-supporting gel was formed immediately. A gelation condition of 2 w/v % in mQ water was found.
for H-Fβ^2hFEFQFK-NH2 (SEQ ID NO:19), 100 μl of PBS was added to 2 mg of TFA-salt of pure peptide, then vortexed and sonicated. After overnight resting, a self-supporting gel was formed. A gelation condition of 2 w/v % in PBS was determined.

[5] = 3 mL PBS on top, after 24 hours

Row | Molecule | collected liquid portion on top of the hydrogel (elastase [1]; hydrogel with elastase, during the first 10 hours) [mL] | time at which hydrogel changed into an opaque structure (elastase [1]) | gel degradation time (hydrogel unstable/fluid-like) (elastase [1]) [days] | time to complete degradation by elastase (elastase [2]; HPLC) | hydrogel volume relative to original volume (elastase [1]; hydrogel with elastase, after 35 days) | macroscopic aggregation / physical degradation (elastase [1]; hydrogel with elastase) | physical stability: time without observable volume loss (elastase [1]; hydrogel with elastase) | time to complete degradation by elastase (elastase [2]; enzyme concentration selected for this) | hydrogel volume ([3]; 1 mL hydrogel, 3 mL PBS 10 mM on top, after 2 hours) [mL] | PBS fraction recollected [3, 5] [mL] | loss in volume of hydrogel [3, 5] [mL] | collected solution ([3]; 3 mL PBS on top, after 4 days) [mL] | time to complete disintegration of hydrogel ([3]; 3 mL PBS on top, no enzyme) [days] | hydrogel concentration obtained ([4]; 50 μl mQ water + 50 μl PBS, rest overnight) [% w/v] | time of gelation (self-supporting gel formed) ([4]; at its own gelation condition)
1 | NCCCC[C@H](NC(=O)[C@H](Cc1ccccc1)NC(=O)C[C@H](Cc1ccccc1)NC(=O)[C@H](CCC(N)=O)NC(=O)[C@H](Cc1ccccc1)NC(=O)C[C@H](Cc1ccccc1)NC(=O)[C@H](CCC(=O)O)NC(=O)[C@@H](N)Cc1ccccc1)C(=O)O [SEQ ID NO 1, H-Phe-Glu-β^3hPhe-Phe-Gln-β^3hPhe-Phe-Lys-OH] (H-FE[β3hF]FQ[β3hF]FK-OH) | 3 | one | 5.5 | 6 days and 3 days |  |  |  |  |  |  |  |  |  |  | 
2 | NCCCC[C@H](NC(=O)[C@H](Cc1ccccc1)NC(=O)C[C@H](Cc1ccccc1)NC(=O)[C@H](CCC(N)=O)NC(=O)[C@H](Cc1ccccc1)NC(=O)C[C@H](Cc1ccccc1)NC(=O)[C@H](CCC(=O)O)NC(=O)[C@@H](N)Cc1ccccc1)C(N)=O [SEQ ID NO 2, H-Phe-Glu-β^3hPhe-Phe-Gln-β^3hPhe-Phe-Lys-NH2] (H-FE[β3hF]FQ[β3hF]FK-NH2) |  |  |  | 6 days | approximately half | no macroscopic aggregation was observed |  |  |  |  |  |  |  |  | 
3 | NCCCC[C@H](NC(=O)[C@H](Cc1ccc(O)cc1)NC(=O)C[C@H](Cc1ccccc1)NC(=O)[C@H](CCC(N)=O)NC(=O)[C@H](Cc1ccc(O)cc1)NC(=O)C[C@H](Cc1ccccc1)NC(=O)[C@H](CCC(=O)O)NC(=O)[C@@H](N)Cc1ccccc1)C(N)=O [SEQ ID NO 3, H-Phe-Glu-β^3hPhe-Tyr-Gln-β^3hPhe-Tyr-Lys-NH2] (H-FE[β3hF]YQ[β3hF]YK-NH2) |  |  |  | 3 days |  | no significant physical degradation nor aggregation | over 42 days |  |  |  |  |  |  |  | 
4 | H-FEFQFK-OH [SEQ ID NO 23, H-FEFQFK-OH, reference compound] |  | 2 days | 3.5 | 0.0208 days |  |  |  | less than 1 hour | 1 | 3.1 | 0.1 | 3.8 | 4 | 1 | overnight
